pIC50: −log10 of the molar value. Like-named read-outs stand apart in the source and are kept apart here.
Key:
USP30 = USP30 (Homo sapiens (Human), UniProt Q70CQ3); assay: Dundee MALDI-TOF mass spectrometry assay (K48-linked diubiquitin cleavage); type: biochemical; conditions: USP30 25 ng/μl, K48-linked diubiquitin 5.6 μM; for IC50: read-out: USP30 IC50 μM (avg); for pIC50: read-out: IC50
Procedure: USP30 was diluted in a buffer containing 40 mM Tris, 0.01% BSA, 1 mM DTT and K48 in 40 mM Tris, 0.01% BSA.
The compounds were pre-incubated with the USP30 for 5 mins at room temp before the K48 dimer addition. The assay mixture was then incubated for 45 mins at room temp. The assay was stopped by the addition of TFA to a final concentration of 2% (v/v).
Acidified samples of the DUB assays were mixed with 0.5 mM 15N-ubiquitin and then with one part of 2% (v/v) TFA and one part of 2.5 DHAP matrix solution (7.6 mg of 2.5 DHAP in […] ethanol and […] of an aqueous 12 mg ml 1 diammonium hydrogen citrate).

[1] = target: recombinant USP30 (amino acids 57-517 of the human sequence) (Homo sapiens (Human), UniProt Q70CQ3); assay: In vitro USP30 biochemical assay (Ubiquitin-Rhodamine substrate); conditions: fluorescence
Chain of recombinant USP30 (amino acids 57-517 of the human sequence) (Q70CQ3 57-517): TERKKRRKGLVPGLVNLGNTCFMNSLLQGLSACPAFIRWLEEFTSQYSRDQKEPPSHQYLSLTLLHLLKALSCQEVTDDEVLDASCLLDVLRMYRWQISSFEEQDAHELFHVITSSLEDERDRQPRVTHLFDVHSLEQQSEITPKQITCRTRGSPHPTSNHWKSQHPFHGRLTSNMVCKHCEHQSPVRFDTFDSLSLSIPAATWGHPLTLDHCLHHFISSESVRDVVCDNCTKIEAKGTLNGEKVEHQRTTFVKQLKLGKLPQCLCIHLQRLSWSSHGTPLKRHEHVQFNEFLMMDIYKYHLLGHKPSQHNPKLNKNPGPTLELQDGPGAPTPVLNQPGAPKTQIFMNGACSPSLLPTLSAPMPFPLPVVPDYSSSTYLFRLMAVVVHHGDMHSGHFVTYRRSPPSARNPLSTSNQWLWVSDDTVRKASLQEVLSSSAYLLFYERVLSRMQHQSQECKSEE
Procedure: In vitro biochemical assay to establish the potency of compounds for USP30 inhibition: a 384-well plate assay using a fluorophore tagged substrate of USP30 was used for in vitro screening of compounds. Each compound was tested at
10 different concentrations (0.5 to 10,000 nM) in duplicate wells. […] Data were analyzed using Graph Pad Prism software with a four-parameter (floating slope) fit to log concentration data to determine IC50s.

[2] = 1.5 nM recombinant USP30, 25 nM Ubiquitin-Rhodamine
[3] = […] recombinant USP30, 25 nM Ubiquitin-Rhodamine

Chain of USP30 (Q70CQ3 whole entry): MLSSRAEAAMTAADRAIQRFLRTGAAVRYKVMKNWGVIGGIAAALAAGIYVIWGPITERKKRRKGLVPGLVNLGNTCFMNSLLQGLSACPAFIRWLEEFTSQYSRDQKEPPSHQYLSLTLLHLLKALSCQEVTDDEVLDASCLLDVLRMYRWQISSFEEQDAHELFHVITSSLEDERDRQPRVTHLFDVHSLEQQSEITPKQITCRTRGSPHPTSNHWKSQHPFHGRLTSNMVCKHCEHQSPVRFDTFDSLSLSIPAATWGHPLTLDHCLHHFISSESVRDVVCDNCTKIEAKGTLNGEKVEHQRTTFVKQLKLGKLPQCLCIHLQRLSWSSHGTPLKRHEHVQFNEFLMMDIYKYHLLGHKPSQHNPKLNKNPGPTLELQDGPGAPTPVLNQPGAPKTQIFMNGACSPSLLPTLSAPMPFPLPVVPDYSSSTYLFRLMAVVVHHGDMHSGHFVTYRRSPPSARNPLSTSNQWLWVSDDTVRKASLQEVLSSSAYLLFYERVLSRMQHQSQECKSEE

| Structure (SMILES) | IC50 [1, 2] [µM] | IC50 [1, 3] [µM] | also measured |
| --- | --- | --- | --- |
| CN1CCC(C[C@H](NC(=O)c2ccc(F)cc2)C(=O)Nc2ccc(S(=O)(=O)NC(C)(C)C(F)(F)F)cc2)CC1 [Compound I-158] | 0.05 to 1 |  | IC50 (USP30): < 0.05 µM |
| CC(C)(C)NS(=O)(=O)c1ccc(NC(=O)[C@H](Cc2ccccc2)NC(=O)c2ccc(F)nc2)cc1 [Compound I-163] |  | < 0.05 | IC50 (USP30): < 0.05 µM |
| CC(C)(C)NS(=O)(=O)c1ccc(NC(=O)[C@H](Cc2ccccc2)NC(=O)C2CCOCC2)cc1 [Compound I-174] | 0.05 to 1 |  | IC50 (USP30): 0.05 to 1 µM |
| Cn1nccc1CNS(=O)(=O)c1ccc(NC(=O)[C@H](Cc2ccccc2)NC(=O)c2ccc(F)cc2)cc1 [Compound I-205] | 0.05 to 1 |  | IC50 (USP30): 0.05 to 1 µM |
| O=C(N[C@@H](Cc1ccccc1)C(=O)Nc1ccc(S(=O)(=O)NC23CC(C2)C3)c(C(F)(F)F)c1)c1ccc(F)cc1 [Compound I-69] | 0.05 to 1 |  | pIC50 (USP30): > 7.30 |
| CC(C)(C)NS(=O)(=O)c1ccc(NC(=O)[C@H](CC2CCN(C#N)CC2)NC(=O)c2ccc(F)cc2)cc1 [Compound I-165] |  | < 0.05 | IC50 (USP30): < 0.05 µM |
| O=C(N[C@@H](CC1CCOCC1)C(=O)Nc1ccc(S(=O)(=O)NC2CCOCC2)nc1)c1ccc(F)cc1 [Compound I-133] | 0.05 to 1 |  | IC50 (USP30): < 0.05 µM |
| O=C(N[C@@H](Cc1ccccc1)C(=O)Nc1ccc(S(=O)(=O)NC2(CO)CC2)nc1)c1ccc(F)cc1 [Compound I-150] | 0.05 to 1 |  | IC50 (USP30): < 0.05 µM |
| CC(=O)N1CCC(CC(NC(=O)c2ccc(F)cc2)C(=O)Nc2ccc(S(=O)(=O)NC(C)(C)C)cc2)CC1 (stereo not drawn) [Compound I-101] |  | < 0.05 | IC50 (USP30): < 0.05 µM |
| CC(C)(NS(=O)(=O)c1ccc(NC(=O)[C@H](CC2CCNCC2)NC(=O)c2ccc(F)cn2)cc1)C(F)(F)F [Compound I-199] | 0.05 to 1 |  | IC50 (USP30): 0.05 to 1 µM |
| COc1cc(NC(=O)[C@H](CC2CCNCC2)NC(=O)c2ccc(F)cc2)ccc1S(=O)(=O)NC(C)(C)CF [Compound I-209] | 0.05 to 1 |  | IC50 (USP30): 0.05 to 1 µM |
| COCCN1CCC(C[C@H](NC(=O)c2ccc(F)cc2)C(=O)Nc2ccc(S(=O)(=O)NC(C)(C)C)cc2)CC1 [Compound I-173] |  | < 0.05 | IC50 (USP30): < 0.05 µM |
| O=C(N[C@@H](Cc1ccccc1)C(=O)Nc1ccc(S(=O)(=O)NC2COC2)c(C(F)(F)F)c1)c1ccc(F)cc1 [Compound I-68] | 0.05 to 1 |  | pIC50 (USP30): > 7.30 |
| CC(C)(C)NS(=O)(=O)c1ccc(NC(=O)[C@H](CC2CCOCC2)NC(=O)c2ccc(F)cn2)cc1 [Compound I-177] |  | < 0.05 | IC50 (USP30): < 0.05 µM |
| CC(C)N1CCC(C[C@H](NC(=O)c2ccc(F)cc2)C(=O)Nc2ccc(S(=O)(=O)NC(C)(C)C)cc2)CC1 [Compound I-117] |  |  | IC50 (USP30): < 0.05 µM |
| O=C(N[C@H](C(=O)Nc1ccc(S(=O)(=O)NC2COC2)cc1)C1CC1)c1ccc(F)cc1 [Compound I-54, (S)—N-(1-cyclopropyl-2-((4-(N-(oxetan-3-yl)sulfamoyl)phenyl)amino)-2-oxoethyl)-4-fluorobenzamide] | 1 to 10 |  |  |
| CC(C)(C)NS(=O)(=O)c1ccc(NC(=O)[C@H](CC2CCN(C(=O)OCc3ccccc3)CC2)NC(=O)N2CCOCC2)cc1 [Compound I-214] | 0.05 to 1 |  |  |
| CC(C)C[C@H](NC(=O)c1ccc(F)cc1)[C@@H](O)CNc1ccc(S(=O)(=O)NC(C)(C)C)cc1 [Compound I-220] |  | > 10 |  |
| CC1(NC(=O)[C@H](Cc2ccccc2)NC(=O)c2ccc(F)cc2)CN(C#N)C1 [Compound I-250] |  | < 0.05 |  |
| CC(C)C[C@H](NC(=O)c1ccccc1)C(=O)NC1CN(C(=O)OCc2ccccc2)C1 [Compound I-247] | 1 to 10 |  |  |
| CC(C)C[C@H](NC(=O)c1ccc(F)cc1)C(=O)NC1CN(C#N)C1 [Compound I-251] |  | < 0.05 |  |
| CC(C)(CN1CCOCC1)NS(=O)(=O)c1ccc(NC(=O)[C@H](CCO)NC(=O)c2ccc(F)cc2)cc1 [Compound I-30] | 1 to 10 |  |  |
| CC(C)C[C@@H](NC(=O)c1ccc(F)cc1)C(=O)Nc1ccc(S(=O)(=O)NC(C)(C)CCO)cc1 [Compound I-21, (R)-4-fluoro-N-(1-((4-(N-(4-hydroxy-2-methylbutan-2-yl)sulfamoyl)phenyl)amino)-4-methyl-1-oxopentan-2-yl)benzamide] |  | > 10 |  |
| CC(C)(C)NS(=O)(=O)c1ccc(NC(=O)[C@@H](NC(=O)c2ccc(F)cc2)C(C)(C)C)cc1 [Compound I-77] | 1 to 10 |  |  |
| COc1cc(NC(=O)[C@H](CC2CCOCC2)NC(=O)c2ccc(F)cc2)ccc1S(=O)(=O)NC(C)(C)C [Compound I-2, (S)—N-(1-((4-(N-(tert-butyl)sulfamoyl)-3-methoxyphenyl)amino)-1-oxo-3-(tetrahydro-2H-pyran-4-yl)propan-2-yl)-4-fluorobenzamide] |  | < 0.05 |  |
| O=C(N[C@@H](Cc1ccccc1)C(=O)Nc1ccc(S(=O)(=O)NCc2ncccn2)cc1)c1ccc(F)cc1 [Compound I-228] | 0.05 to 1 |  |  |

| Structure (SMILES) | IC50 [1, 2] [µM] | IC50 [1, 3] [µM] | also measured |
| --- | --- | --- | --- |
| CC(C)(C)NS(=O)(=O)c1ccc(NC(=O)C2CC(C3CCCCC3)CN2C(=O)c2ccc(F)cc2)cc1 (stereo not drawn) [Compound I-292] | 0.05 to 1 |  |  |
| CC(C)(C)NS(=O)(=O)c1ccc(NC(=O)[C@H](Cc2ccccc2)NC(=O)N2CC3(COC3)C2)cc1 [Compound I-179] | 1 to 10 |  |  |
| COc1cc(NC(=O)[C@H](CC2CCOCC2)NC(=O)c2ccc(F)cc2)ccc1S(=O)(=O)NC1CCN(C)CC1 [Compound I-88] | 0.05 to 1 |  |  |
| O=C(Nc1ccc(S(=O)(=O)NC2COC2)cc1)[C@@H]1C[C@H](O)CN1C(=O)c1ccc(F)cc1 [Compound I-281] |  | > 10 |  |
| CC(C)(C)NS(=O)(=O)c1cccc2c(NC(=O)[C@H](CC3CCOCC3)NC(=O)c3ccc(F)cc3)cccc12 [Compound I-8, (S)—N-(1-((5-(N-(tert-butyl)sulfamoyl)naphthalen-1-yl)amino)-1-oxo-3-(tetrahydro-2H-pyran-4-yl)propan-2-yl)-4-fluorobenzamide] |  | < 0.05 |  |
| COC[C@H](NC(=O)c1ccc(F)cc1)C(=O)Nc1ccc(S(=O)(=O)NC2COC2)cc1 [Compound I-34] | 1 to 10 |  |  |
| COc1cc(NC(=O)[C@@H]2C[C@@H](C3CCCCC3)CN2C(=O)c2ccc(F)cc2)cnc1S(=O)(=O)NC(C)(C)CO [Compound I-256] |  | > 10 |  |
| COc1cc(NC(=O)[C@H](CC2CCOCC2)NC(=O)c2ccc(F)cc2)cnc1S(=O)(=O)NC(C)(C)CO [Compound I-76] | 0.05 to 1 |  |  |
| CC(C)(C)NS(=O)(=O)c1ccc(NC(=O)[C@@H]2CCCN2C(=O)c2ccc(F)cc2)cc1 [Compound I-50, (S)—N-(4-(N-tert-butylsulfamoyl)phenyl)-1-(4-fluorobenzoyl)pyrrolidine-2-carboxamide] | 1 to 10 |  |  |
| CC(C)(C)NS(=O)(=O)c1ccc(NC(=O)[C@H](CC#N)NC(=O)c2ccc(F)cc2)cc1 [Compound I-243] | 0.05 to 1 |  |  |
| CC(C)C[C@H](NC(=O)c1ccc(F)cn1)C(=O)Nc1ccc(S(=O)(=O)NC(C)(C)C(F)(F)F)nc1 [Compound I-210] | 0.05 to 1 |  |  |
| CN1CCN(C(=O)N[C@@H](CC2CCNCC2)C(=O)Nc2ccc(S(=O)(=O)NC(C)(C)C)cc2)CC1 [Compound I-219] |  | > 10 |  |
| O=C(N[C@@H](Cc1ccccc1)C(=O)Nc1ccc(S(=O)(=O)NCc2cnc[nH]2)cc1)c1ccc(F)cc1 [Compound I-239] | 0.05 to 1 |  |  |
| Cn1nccc1CCNS(=O)(=O)c1ccc(NC(=O)[C@H](Cc2ccccc2)NC(=O)c2ccc(F)cc2)cc1 [Compound I-237] | 0.05 to 1 |  |  |
| CN1CCC(C[C@H](NC(=O)c2ccc(F)cc2)C(=O)Nc2ccc(S(=O)(=O)NC3CCOCC3)nc2)CC1 [Compound I-140] | 0.05 to 1 |  |  |
| CC(C)(NS(=O)(=O)c1ccc(NC(=O)[C@H](CC2CCOCC2)NC(=O)c2ccc(F)cn2)cc1)C(F)(F)F [Compound I-207] | 0.05 to 1 |  |  |
| CC(C)[C@H](NC(=O)c1ccc(F)cc1)C(=O)Nc1ccc(S(=O)(=O)NC(C)(C)C)cc1 [Compound I-206] | 0.05 to 1 |  |  |
| CC(C)C[C@H](NC(=O)c1ccc(F)cn1)C(=O)Nc1ccc(S(=O)(=O)NC(C)(C)C(F)(F)F)cc1 [Compound I-204] | 0.05 to 1 |  |  |
| O=C(N[C@@H](Cc1ccccc1)C(=O)N[C@@H]1CCN(S(=O)(=O)NC2CCOC2)C1)c1ccc(F)cc1 (stereo partly drawn) [Compound I-170] |  | > 10 |  |
| COCCC(C)(C)NS(=O)(=O)c1ccc(NC(=O)[C@H](CC2CCOCC2)NC(=O)c2ccc(F)cc2)cc1 [Compound I-7] | 0.05 to 1 |  |  |
| CN1CCC(C[C@H](NC(=O)c2ccc(F)cc2)C(=O)Nc2ccc(S(=O)(=O)NC3COC3)nc2)CC1 [Compound I-104] | 1 to 10 |  |  |
| CCNS(=O)(=O)c1cccc2c(NC(=O)[C@H](CC3CCOCC3)NC(=O)c3ccc(F)cc3)cccc12 [Compound I-9] | 0.05 to 1 |  |  |
| CC(C)(CO)NS(=O)(=O)c1ccc(NC(=O)[C@@H]2C[C@@H](C3CCCCC3)CN2C(=O)c2ccc(F)cc2)cc1 [Compound I-254] | 1 to 10 |  |  |
| CC(C)(C)NS(=O)(=O)c1ccc(NC(=O)[C@H](Cc2ccccc2)NC(=O)c2cc[nH]c2)cc1 [Compound I-181] |  | > 10 |  |
| CN1CCC(C[C@H](NC(=O)c2ccc(F)cc2)C(=O)Nc2ccc(S(=O)(=O)NC(C)(C)CO)cc2)CC1 [Compound I-44] | 0.05 to 1 |  |  |
| O=C(N[C@@H](CC1CCNCC1)C(=O)Nc1ccc(S(=O)(=O)N[C@@H]2CCOC2)nc1)c1ccc(F)cc1 [Compound I-108] | 0.05 to 1 |  |  |

Reference: patent US20250162989A1, “USP30 INHIBITORS AND USES THEREOF” (Vincere Biosciences, Inc., priority 2021, published 2025)
